Laboratory results: patent US20070208087A1, “Compounds, compositions and methods for the treatment of inflammatory diseases” (priority 2001, published 2007)
Several values for one entry are separate records, joined by “and”; a condition that tells them apart may be missing. Equal values may be shown once. Read-outs that look alike come from different tables or passages of the source.

Legend:
Type in all cases: cell-based
Microglial cells [1] = test: Dose response inhibition of NO release from microglia, 0.75-200 μM (Example 8)
Method: This experiment was designed to determine dose response inhibition of NO release from microglia by bis- and tris-dihydroxyaryl compounds when stimulated with LPS/IFNγ. […] This experiment is designed to determine a dose response for various bis- and tris-dihydroxyaryl compounds. Microglial cells were plated into 96 well plates at 1×10^5 cells/ml. […] The doses tested were: 0.75 μM, 1.56 μM, 3.125 μM, 6.25 μM, 12.5 μM, 25 μM, 50 μM, 100 μM and 200 μM. Nitric oxide release was measured after 48 hours using the Griess reaction.

microglia = test: Ranking of NO release inhibition (Example 12); details: Microglia, ranking table
From the text: The bis- and tris-dihydroxyaryl compounds were ranked in order of effectiveness for the inhibition of NO release as set out in Table 8.

[2] = system: EOC 13.31 microglia cells; test: Inhibition of NO release from microglia following 24 hours pretreatment (Example 10); details: for inhibition at 50 µM: Microglia
Method in brief: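 Confluent EOC 13.31 cells pretreated 24 hours with 50 μM compound (from 10 mM DMSO stock), then stimulated with 10 μg/ml LPS plus 10 ng/ml IFNγ without media change. After a further 48 hours, NO release was measured by Griess Reaction.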

Microglial cells [3] = test: Dose response inhibition of NO release from microglia, 0.5-500 μM (Example 9); details: for μM NO release / μM NO release (No LPS average subtracted): 3 replicates
Method in brief: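 Cells seeded at 1×10^5 cells/ml and, after 48 h, stimulated with 10 ng/ml IFNγ plus 10 μg/ml LPS together with test compounds or L-NAME at 0.5–500 μM. NO release measured by Griess reaction after 48 h.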

[4] = dose 200 μM, 48 hours, single replicates
[5] = dose 0.5 μM, LPS/IFNγ, 48 hours
[6] = dose 100 μM, LPS/IFNγ, 48 hours
[7] = dose 250 μM, LPS/IFNγ, 48 hours
[8] = dose 500 μM, LPS/IFNγ, 48 hours

For O=C(NCc1ccc(O)c(O)c1)C(=Cc1ccc(O)c(O)c1)NC(=O)c1ccc(O)c(O)c1 [Compound 21, α-(3,4-dihydroxybenzamido)-3,4-dihydroxycinnamic acid 3,4-dihydroxybenzyl amide], the “% inhibition” value (Microglial cells [1]; [4]) was 68.42% and 71.58%, the “OD values (printed under head μM NO release)” value (Microglial cells [1]; [4]) was 0.087 and 0.093 and 0.092 and the “μM NO release” value (Microglial cells [1]; [4]) was 5.625 µM and 6.41 µM. For the same molecule, the “inhibition of NO release, in words” value (Microglial cells [1]; dose response 0.75-200 μM) was “effective inhibitors of NO release”, the inhibition at 50 µM (microglia) was 18% and the “% inhibition” value ([2]; 50 uM pretreatment 24 hours, then LPS/IFNγ 48 hours, single replicates) was 82.29% and 84.17%. It also gave an inhibition at 50 µM ([2]; 50 uM pretreatment 24 hours, then LPS/IFNγ 48 hours, read-out: Avg % Inhibition) of 83.9%, an inhibition at 50 µM ([2]; 50 uM pretreatment 24 hours, then LPS/IFNγ 48 hours, single replicates, read-out: % inhibition) of 85.2% and an inhibition at 50 µM ([2]; 50 μM pretreatment, read-out: inhibition of NO release following pretreatment) of over 75%. For the same molecule, the inhibition at 0.5 µM (Microglial cells [3]; Microglia, 48 h, dose 0.5 μM, NO release, LPS/IFNγ, 48 hours, read-out: Avg % Inhibition) was -0.76%, the inhibition at 1 µM (Microglial cells [3]; Microglia, 48 h, dose 1 μM, NO release, LPS/IFNγ, 48 hours, read-out: Avg % Inhibition) was 1.01% and the inhibition at 5 µM (Microglial cells [3]; Microglia, 48 h, dose 5 μM, NO release, LPS/IFNγ) was 0.76%. It also gave an inhibition at 10 µM (Microglial cells [3]; Microglia, 48 h, dose 10 μM, NO release, LPS/IFNγ) of -1.27%, an inhibition at 25 µM (Microglial cells [3]; Microglia, 48 h, dose 25 μM, NO release, LPS/IFNγ) of 4.82% and an inhibition at 50 µM (Microglial cells [3]; Microglia, 48 h, dose 50 μM, NO release, LPS/IFNγ) of 13.2%. The inhibition at 100 µM (Microglial cells [3]; Microglia, 48 h, dose 100 μM, NO release, LPS/IFNγ, 48 hours, read-out: Avg % Inhibition) was 35.2%, the inhibition at 100 µM (Microglial cells [3]; Microglia, 48 h, dose 100 μM, individual replicates, NO release, LPS/IFNγ, 48 hours, read-out: % inhibition) was 29.4% and the inhibition at 250 µM (Microglial cells [3]; Microglia, 48 h, dose 250 μM, NO release, LPS/IFNγ, 48 hours, read-out: Avg % Inhibition) was 83.5%. It also gave an inhibition at 250 µM (Microglial cells [3]; Microglia, 48 h, dose 250 μM, individual replicates, NO release, LPS/IFNγ, 48 hours, read-out: % inhibition) of 81%, an inhibition at 500 µM (Microglial cells [3]; Microglia, 48 h, dose 500 μM, NO release, LPS/IFNγ, 48 hours, read-out: Avg % Inhibition) of 80.3% and an inhibition at 500 µM (Microglial cells [3]; Microglia, 48 h, dose 500 μM, individual replicates, NO release, LPS/IFNγ, 48 hours, read-out: % inhibition) of 78%. The “μM NO release” value (Microglial cells [3]; [5]) was 19.722 µM and 20.139 µM and 20.417 µM, the “μM NO release (No LPS average subtracted)” value (Microglial cells [3]; [5]) was 18.02 µM and 18.44 µM and 18.72 µM and the “% inhibition” value (Microglial cells [3]; dose 0.5 μM, individual replicates, NO release, LPS/IFNγ, 48 hours) was 1.27% and −1.01% and −2.54%. For the same molecule, the “μM NO release” value (Microglial cells [3]; dose 1 μM, LPS/IFNγ, 48 hours) was 20.694 µM and 19.444 µM and 19.167 µM, the “μM NO release (No LPS average subtracted)” value (Microglial cells [3]; dose 1 μM, LPS/IFNγ, 48 hours) was 18.99 µM and 17.74 µM and 17.47 µM and the “% inhibition” value (Microglial cells [3]; dose 1 μM, individual replicates, NO release, LPS/IFNγ, 48 hours) was −4.06% and 2.79% and 4.31%. For the same molecule, the “μM NO release” value (Microglial cells [3]; dose 5 μM, LPS/IFNγ, 48 hours) was 20.278 µM and 20.000 µM and 19.167 µM, the “μM NO release (No LPS average subtracted)” value (Microglial cells [3]; dose 5 μM, LPS/IFNγ, 48 hours) was 18.58 µM and 18.30 µM and 17.47 µM and the “% inhibition” value (Microglial cells [3]; dose 5 μM, individual replicates, NO release, LPS/IFNγ, 48 hours) was −1.78% and −0.25% and 4.31%. For the same molecule, the “μM NO release” value (Microglial cells [3]; dose 10 μM, LPS/IFNγ, 48 hours) was 20.556 μM (2×) and 19.444 μM, the “μM NO release (No LPS average subtracted)” value (Microglial cells [3]; dose 10 μM, LPS/IFNγ, 48 hours) was 18.86 μM (2×) and 17.74 μM and the “% inhibition” value (Microglial cells [3]; dose 10 μM, individual replicates, NO release, LPS/IFNγ, 48 hours) was −3.30% (2×) and 2.79%. The “μM NO release” value (Microglial cells [3]; dose 25 μM, LPS/IFNγ, 48 hours) was 19.722 µM and 18.889 µM and 18.611 µM, the “μM NO release (No LPS average subtracted)” value (Microglial cells [3]; dose 25 μM, LPS/IFNγ, 48 hours) was 18.02 µM and 17.19 µM and 16.91 µM and the “% inhibition” value (Microglial cells [3]; dose 25 μM, individual replicates, NO release, LPS/IFNγ, 48 hours) was 1.27% and 5.83% and 7.36%. The “μM NO release” value (Microglial cells [3]; dose 50 μM, LPS/IFNγ, 48 hours) was 18.472 µM and 16.806 µM and 17.361 µM, the “μM NO release (No LPS average subtracted)” value (Microglial cells [3]; dose 50 μM, LPS/IFNγ, 48 hours) was 16.77 µM and 15.11 µM and 15.66 µM and the “% inhibition” value (Microglial cells [3]; dose 50 μM, individual replicates, NO release, LPS/IFNγ, 48 hours) was 8.12% and 17.25% and 14.20%. The “μM NO release” value (Microglial cells [3]; [6]) was 14.583 µM and 12.639 µM and 13.333 µM, the “μM NO release (No LPS average subtracted)” value (Microglial cells [3]; [6]) was 12.88 µM and 10.94 µM and 11.63 µM and the “% inhibition” value (Microglial cells [3]; dose 100 μM, individual replicates, NO release, LPS/IFNγ, 48 hours) was 40.07% and 36.27%. The “μM NO release” value (Microglial cells [3]; [7]) was 5.163 µM and 3.940 µM and 5.027 µM, the “μM NO release (No LPS average subtracted)” value (Microglial cells [3]; [7]) was 3.46 µM and 2.24 µM and 3.33 µM and the “% inhibition” value (Microglial cells [3]; dose 250 μM, individual replicates, NO release, LPS/IFNγ, 48 hours) was 87.73% and 81.77%. The “μM NO release” value (Microglial cells [3]; [8]) was 5.707 µM and 4.348 µM and 5.842 µM, the “μM NO release (No LPS average subtracted)” value (Microglial cells [3]; [8]) was 4.01 µM and 2.65 µM and 4.14 µM and the “% inhibition” value (Microglial cells [3]; dose 500 μM, individual replicates, NO release, LPS/IFNγ, 48 hours) was 85.49% and 77.31%. The “inhibition of NO release, in words” value (Microglial cells [3]; dose response 0.5-500 μM) was “most effective at the 250 μM dose”.
